The values below come from paper PMC4413647, “Simultaneous targeting of androgen receptor (AR) and MAPK-interacting kinases (MNKs) by novel retinamides inhibits growth of human prostate cancer cell lines” (Oncotarget, 2014).

For orientation: GI50 means the concentration that inhibits growth by half.

Type in all cases: cell-based, human
Experiment [1] deals with LNCaP cells. The experiment can be described thus: Cell cycle FACS analysis (PI staining). To be noted: 5 μM, 24 h, untreated control 37.1%. The method, then:
Figure 4 Effect of NRs on cell cycle and apoptosis (A) LNCaP cells treated with 5 μM of NRs and other compounds for 24 h were stained with PI and analysed with a FACS calibur flow cytometer. (B) Total cell lysates from PCa cells treated with 20 μM of NRs were separated by SDS-PAGE and probed with cyclin D1 and B antibodies. […] (C) LNCaP cells were treated with indicated compounds (5 μmol/L) for 24 h and apoptosis induction was examined by oligonucleosomal fragmentation. Data are shown relative to vehicle treated control and the bars are means of three replicate determinations plus standard deviations. *, P< 0.01; ♣, P<0.05 compared with vehicle treated control. […] After 24 h the plates were analyzed for apoptotic and viable cells using acridine orange/ethidium bromide staining. […] (F) Apoptosis induction in LNCaP cells treated with 5 μmol/L of VNLG-147 and -152 in the presence or absence of ZVAD (5 μmol/L) was assessed by oligonucleosomal fragmentation after 24 h incubation. *, P< 0.05 compared with vehicle treated control. […]
Cells were harvested by trypsinization and then ﬁxed with 70% ethanol for 24 h at 4 °C. […] Stained cells were analyzed with a ﬂow cytometer using FlowJo software that exploits Watson algorithm to find out peak and S-phase populations from a univariate distribution curve.
A general note: In flow cytometry, cells or beads pass a laser one at a time.

Experiment [2] deals with MR49F cells. The experiment can be described thus: MTT growth inhibition in Enzalutamide resistant MR49F cells. To be noted: Homo sapiens, MR49F; read-out: GI50 MR49F (Figure 2C). The method, then: Figure 2 Effect of NRs on PCa cell growth and colony formation (A) Representative photographs of colonies formed in PCa cells at 14th day after initial treatment with specified compounds (5 μmol/L). Colonies were fixed with methanol and stained with crystal violet. (B) Data represents the mean ± S.E from three independent experiments. *, P< 0.05; ♣, P<0.01 compared to vehicle treated control. […] NRs that had promising inhibitory effect on cell proliferation on LNCaP cells were tested for their growth inhibitory effect in MR49F cells in comparison with Casodex and Abiraterone acetate by MTT assay.
Androgen-dependent (LNCaP), androgen-independent (PC-3) and castration resistant (C4-2B and 22Rv1) human prostate carcinoma cells were procured from American Type Culture Collection, Manassas, VA, USA and maintained in RPMI 1640 media (Gibco-Life Technologies, Grand Island, NY, USA) supplemented with 10% fetal bovine serum and 1% penicillin/streptomycin. […] Immortalized untransformed prostate epithelial cells, PWR1E from American Type Culture Collection were maintained in serum-free Keratinocyte media (Gibco) supplemented with epidermal growth factor and bovine pituitary extract. All cell lines were maintained in a 37 °C/5% CO2 humidified atmosphere.
(§1) Cell proliferation assay was performed as described previously. For cell growth experiment, cells were treated with the NRs for 7 days. MTT assay was performed at the end of the experiment. Calculations of combination indices were done using the Calcusyn program (Biosoft, Cambridge, United Kingdom). For colony formation assay, cells were plated 1000 per well in complete media and allowed to adhere for 24 h. The next day cells were treated with indicated compounds (5 μM). After 24 h compound containing media were removed, and cells were allowed to form colonies in complete media. Approximately 2 weeks later the colonies were fixed, stained with 0.5% crystal violet (sigma) for 30 min and counted manually. Results represent the mean ± standard deviation of three independent experiments.

Experiment [3] concerns PCa cells. The experiment can be described thus: MTT cell viability in PCa cells (LNCaP, PC-3, C4-2B, 22Rv1). To be noted: Homo sapiens, range over PCa cell lines. The method, then: as §1

In the case of `CC1=C(/C=C/C(C)=C/C=C/C(C)=C/C(=O)Nc2ccc(F)cc2)C(C)(C)CCC1n1ccnc1` (racemic) [VNLG-152], the “percentage of cells in G1 phase” value in experiment [1] came to 74.6%. Further, the GI50 in experiment [2] is 3.89 µM; in experiment [3] it was 1.5 to 5.5 µM.
